{
  "source": "patent US12447190B1",
  "about": "“Vasopressin premix systems and uses thereof” (Baxter International Inc., priority 2023, dated 2025)",
  "origin": "cited, not measured here",
  "key": {"[1]": {"test_system": "patients with vasodilatory shock"}},
  "data": [
    {"smiles": "NC(=O)CC[C@@H]1NC(=O)[C@H](Cc2ccccc2)NC(=O)[C@H](Cc2ccc(O)cc2)NC(=O)[C@@H](N)CSSC[C@@H](C(=O)N2CCC[C@H]2C(=O)N[C@@H](CCCN=C(N)N)C(=O)NCC(N)=O)NC(=O)[C@H](CC(N)=O)NC1=O", "note": "[vasopressin, Cyclo (1-6) L-Cysteinyl-L-Tyrosyl-L-Phenylalanyl-L-Glutaminyl-L-Asparaginyl-L-Cysteinyl-L-Prolyl-L-Arginyl-L-Glycinamide]", "values": [
      {"measurement": "time to steady state plasma concentrations", "setting": "continuous intravenous infusion", "result": 30, "unit": "min"},
      {"measurement": "vasopressin plasma concentrations versus infusion rate", "setting": "infusion rates from 10 to 200 U/kg/min", "result": "increases linearly"},
      {"measurement": "time for pressor effect to fade", "setting": "[1]; after stopping the infusion", "result": "≤ 20", "unit": "min"},
      {"measurement": "time for pressor effect to reach its peak", "setting": "[1]; infusion in patients", "result": "≤ 15", "unit": "min"}
    ]}
  ]
}
